Experimental findings from patent US7122214B2, “Drynaria extractions for treating osteoporosis and their extraction process” (priority 2000, dated 2006) are described below.

This experiment has as its system Ovariectomized (OVX) rats. In words: Bone biomechanics (three point bending of left thighbone) in Ovariectomized (OVX) rats. Format: in vivo, Wistar rats. As to the method: Observe the effect of RDE in this invention on both Tretinoin-induced and Ovariectomized (OVX) osteoporosis model in rats. […] RDE was dissolved in distilled water to a concentration of 0.47 mg/ml before administration. And administration was conducted via gastric tube. Tretinoin is manufactured by Chongqing Huabang Pharmaceuticals, Ltd. and was suspended to the concentration of 1.5% with distilled water. Control drug α-D3 was manufactured by TEVA PHARMACEUTICALS, Israel, which is solved in distilled water to the concentration of 0.03 μg/ml before using and administrated orally via gastric tube. Tretinoin-induced osteoporosis rats: sixty female […]-old, mean weight 234.85±15.32 g. Ovariectomized rats: sixty female Wistar rats, 12-week-old, mean weight 183.46±12.45 g. All the animals are obtained from the Experimental Animal Center of Chinese Military Medical Academy. Bone Biomechanics Rheometer was manufactured by Stevens Company, Great Britain (model QTS-25). X ray Bone-density-meter was manufactured by Norland Company, USA (model XR-26). The others are all obtained from market. 4. Dose Selections and Groups: • (1) Tretinoin-induced group: Sixty rats are randomly allocated to six groups (10 rats per group). Blank group: control animals received PSS/d (physiological saline solution) alone. Model group: Tretinoin is given orally 70 mg/kg/d; α-D3 group: both tretinoin and α-D3 are given orally 70 mg/kg/d and 0.002 μg/kg/d respectively; RDE low-dose group: both tretinoin and RDE are given orally 70 mg/kg/d and 54 mg/kg/d respectively; RDE medium-dose group: tretinoin 70 mg/kg/d and RDE 108 mg/kg/d; RDE high-dose group: tretinoin 70 mg/kg/d and RDE 216 mg/kg/d. • (2) Ovariectomized (OVX) rats group: Sixty rats are randomly allocated to six groups (10 rats per group). Blank group is the normal rats. All the other groups are removed amphi-ovaries. Model group received PSS only; α-D3 group: α-D3 is administrated orally 0.002 μg/kg/d; And RDE is administrated orally in the dose of 54, 108, 216 mg/kg/day to OVX rats respectively, corresponding to RDE groups of low-dose, medium-dose and high-dose. The dose administered to each animal is calculated from the individual body weight recorded at the end of each week. OVX rats groups: Both blank and model groups are given the same volume of distilled water orally, All the other groups commenced treatment according to the way mentioned above for 12 weeks after which animals are sacrificed and investigation of Bone Density and Bone-biomechanics are performed. 7. Measurements • 7.1. […] Bone biomechanics measurements: three point bending tests of left thighbone of each animal are performed; load-deformation curve is recorded to measure the biomechanics index. Experimental parameters: span 20 mm, loading velocity 10 mm/min. Bone structural mechanics parameters: breaking load, elastic load, maximum radius, elastic radius, maximum energy absorption; bone material mechanics parameters: firstly calculated the Femoral Section Inertial Moment, then computed the maximum strain, elastic strain, maximum stress, elastic stress and elastic modulus according to the formulae. [Results]

Where [1] appears, read: OVX rats, α-D3 0.002 μg/kg/d oral 12 weeks.

As for `C=C1/C(=C\C=C2/CCC[C@]3(C)[C@@H]([C@H](C)CCCC(C)C)CC[C@@H]23)C[C@@H](O)C[C@@H]1O` [α-D3], the “all the bone structural mechanics indicators compared with model group” value (OVX rats (Table 12)) is listed as “increased significantly”. Besides, under setting [1], the “Area of bone cortes” value amounted to 4.13 ± 0.99, the Elastic load came to 88.6 ± 12.7 N, the Elastic mould stood at 7992 ± 1132 and the “Elastic strain (material)” value is on record as 0.03 ± 0.010. For the same compound, under setting [1], the Elastic stress was determined as 147.2 ± 11.00 N/mm^2, the Maximum energy observation worked out at 520.48 ± 108.44 N-mm^2, the Maximum load is listed as 102.1 ± 2.90 N and the “Maximum strain (material)” value was found to be 0.03 ± 0.006. Besides, under setting [1], the “Maximum strain (structural)” value was determined as 0.96 ± 0.10 mm, the Maximum stress was determined as 221.5 ± 46.50 N/mm^2 and the Rigidity coefficient is reported as 27508 ± 8073.
